Measurements as given in ChEMBL document CHEMBL6087415, “Discovery of new fungal jumonji H3K27 demethylase inhibitors for the treatment of Cryptococcus neoformans and Candida auris infections” (Eur J Med Chem, 2025).
In brackets after ≈: the same amount, converted by molar mass. Activity calls are given as the source filed them. The calls are words filed in the database; no cut-off is given here.

Key:
[Candida] auris [1] = Antifungal activity against Candida auris 0029 assessed as reduction in fungal growth; type: functional; conditions: Candidozyma auris
[Candida] auris [2] = Antifungal activity against Candida auris ATCC 15448 assessed as reduction in fungal growth; type: functional; conditions: Candidozyma auris
Cryptococcus neoformans [3] = assay: Antifungal activity against Cryptococcus neoformans H99 assessed as reduction in fungal growth; type: functional
[Candida] auris [4] = Antibiofilm activity against Candida auris 0029 assessed as appearance of surface collapse at 4 to 16 microg/ml measured for 48 hrs by SEM analysis; type: functional, organism-based; conditions: Candidozyma auris, dose 4-16 µg/ml
Cryptococcus neoformans [5] = assay: Antifungal activity against Cryptococcus neoformans H99 assessed as reduction in fungal growth incubated for 72 hrs in presence of 40 uM Fe2+; type: functional
[Candida] auris [6] = Fungicidal activity against Candida auris 0029; type: functional; conditions: Candidozyma auris
[7] = Cytotoxicity against HUVEC cells; type: toxicity, cell-based; conditions: human
[8] = Hemolytic activity in rabbit erythrocytes assessed as hemolysis at 10 to 100 uM relative to control; type: toxicity, cell-based, Oryctolagus cuniculus, Erythrocyte; conditions: dose 10-100 µM, read-out: Activity
Cryptococcus neoformans [9] = assay: Effect on sterol composition in Cryptococcus neoformans H99 assessed as other sterols content at 1 microg/ml measured after 24 hrs by GC-MS analysis (reference value: 41.47%); type: functional; conditions: dose 1 µg/ml
[Candida] auris [10] = Effect on sterol composition in Candida auris 0029 assessed as ergosterol content at 1 microg/ml measured after 24 hrs by GC-MS analysis (reference value: 100 %); type: functional, Candidozyma auris; conditions: dose 1 µg/ml
[11] = Inhibition of Candida auris 0029 JMJD3 by absorbance based analysis; set-up: species or system Candidozyma auris
[12] = Inhibition of Cryptococcus neoformans H99 JMJD3 by absorbance based analysis
[Candida] auris [13] = Effect on sterol composition in Candida auris 0029 assessed as other sterols content at 1 microg/ml measured after 24 hrs by GC-MS analysis; type: functional, Candidozyma auris; conditions: dose 1 µg/ml
Cryptococcus neoformans [14] = assay: Induction of morphological changes in Cryptococcus neoformans H99 assessed as damaged cell membrane at 1 to 4 microg/ml by TEM analysis; type: functional, organism-based; conditions: dose 1-4 µg/ml
[Candida] auris [15] = Antifungal activity against Candida auris 0029 assessed as inhibition of cell growth at 16 microg/ml measured for 72 hrs; type: functional; conditions: Candidozyma auris
Candida albicans = assay: Synergistic antifungal activity against Candida albicans assessed as inhibition of fungal growth incubated in presence of fluconazole; type: functional, organism-based
[Candida] auris [16] = Antibiofilm activity against Candida auris 0029 assessed as inhibition of biofilm formation at 4 to 64 microg/ml incubated for 24 hrs by XTT reduction assay; type: functional, organism-based; conditions: Candidozyma auris, dose 4-64 µg/ml
[17] = Solubility of compound in MeOH/H2O at pH 7 by HPLC analysis; type: physicochemical
Cryptococcus neoformans [18] = assay: Antifungal activity against Cryptococcus neoformans H99 assessed as reduction in fungal growth incubated for 72 hrs in presence of 1 uM Fe2+; type: functional
[19] = Metabolic stability in mouse liver microsome assessed as clearance; type: ADME; conditions: liver microsomes, read-out: CLH
Cryptococcus neoformans [20] = assay: Antifungal activity against Cryptococcus neoformans H99 infected in ICR mouse assessed as reduction in fungal burden in brain at 2 to 5 mg/kg, ip administered for 5 days; type: functional, organism-based; conditions: dose 2-5 mg/kg, time 5.0 day
Cryptococcus neoformans [21] = assay: Antifungal activity against Cryptococcus neoformans H99 assessed as reduction in fungal growth incubated for 72 hrs in presence of 20 uM Fe2+; type: functional
Cryptococcus neoformans [22] = assay: Effect on sterol composition in Cryptococcus neoformans H99 assessed as ergosterol content at 1 microg/ml measured after 24 hrs by GC-MS analysis (reference value: 58.53%); type: functional; conditions: dose 1 µg/ml
[23] = Metabolic stability in mouse liver microsome assessed as half life; type: ADME; conditions: liver microsomes
Cryptococcus neoformans [24] = assay: Antifungal activity against Cryptococcus neoformans H99 assessed as reduction in fungal growth incubated for 72 hrs in presence of 10 uM Fe2+; type: functional
Cryptococcus neoformans [25] = assay: Antifungal activity against Cryptococcus neoformans H99 assessed as reduction in fungal growth incubated for 72 hrs in presence of 5 uM Fe2+; type: functional
[Candida] auris [26] = Induction of morphological changes in Candida auris 0029 assessed as cell membrane damage by TEM analysis; type: functional, organism-based; conditions: Candidozyma auris
Cryptococcus neoformans [27] = assay: Antifungal activity against Cryptococcus neoformans H99 assessed as reduction in fungal growth incubated for 72 hrs in presence of 80 uM Fe2+; type: functional
[Candida] auris [28] = Induction of morphological changes in Candida auris 0029 assessed as cell wall damage by TEM analysis; type: functional, organism-based; conditions: Candidozyma auris
Cryptococcus neoformans [29] = assay: Antibiofilm activity against Cryptococcus neoformans H99 assessed as appearance of blurred capsule at 4 microg/ml measured for 48 hrs by SEM analysis; type: functional, organism-based; conditions: dose 4.0 µg/ml
[Candida] auris [30] = Synergistic antifungal activity against Candida auris 0029 assessed as inhibition of fungal growth incubated in presence of fluconazole; type: functional, organism-based; conditions: Candidozyma auris
Cryptococcus neoformans [31] = assay: Induction of morphological changes in Cryptococcus neoformans H99 assessed as sparse capsule at 1 to 4 microg/ml by TEM analysis; type: functional, organism-based; conditions: dose 1-4 µg/ml
Cryptococcus neoformans [32] = assay: Antifungal activity against Cryptococcus neoformans H99 assessed as inhibition of cell growth at 4 microg/ml measured for 72 hrs; type: functional, organism-based; conditions: dose 4.0 µg/ml
Cryptococcus neoformans [33] = assay: Antibiofilm activity against Cryptococcus neoformans H99 assessed as inhibition of capsule formation at 1 microg/ml incubated for 48 hrs by laser confocal microscopic analysis; type: functional, organism-based; conditions: dose 1.0 µg/ml
Cryptococcus neoformans [34] = assay: Antibiofilm activity against Cryptococcus neoformans H99 assessed as inhibition of biofilm formation at 1 microg/ml incubated for 24 hrs by XTT reduction assay; type: functional, organism-based; conditions: dose 1.0 µg/ml
Cryptococcus neoformans [35] = assay: Antibiofilm activity against Cryptococcus neoformans H99 assessed as appearance of surface collapse at 4 to 16 microg/ml measured for 48 hrs by SEM analysis; type: functional, organism-based; conditions: dose 4-16 µg/ml
Cryptococcus neoformans [36] = assay: Fungicidal activity against Cryptococcus neoformans H99; type: functional
[Candida] auris [37] = Antifungal activity against Candida auris 0029 infected in ICR mouse assessed as reduction in fungal burden in kidney at 2 to 5 mg/kg, ip administered for 5 days; type: functional, organism-based; conditions: Candidozyma auris, dose 2-5 mg/kg, time 5.0 day
[Candida] auris [38] = Antibiofilm activity against Candida auris 0029 assessed as inhibition of biofilm formation upto […] microg/ml incubated for 24 hrs by XTT reduction assay; type: functional, organism-based; conditions: Candidozyma auris, dose <= 64.0 µg/ml
Cryptococcus neoformans [39] = assay: Antibiofilm activity against Cryptococcus neoformans H99 assessed as inhibition of biofilm formation upto […] microg/ml incubated for 24 hrs by XTT reduction assay; type: functional, organism-based; conditions: dose <= 64.0 µg/ml

Clc1cccnc1N/N=C(\c1ccccc1)c1ccccn1
MIC80 ([Candida] auris [1]): 4 µg/mL (≈ 13 µM) | MIC80 ([Candida] auris [2]): 0.5 µg/mL (≈ 1.62 µM) | MIC80 (Cryptococcus neoformans [3]): 1 µg/mL (≈ 3.24 µM)

Clc1ccc(/C(=N\Nc2ccc(Cl)cn2)c2ccccn2)cc1
MIC80 ([Candida] auris [1]): 2 µg/mL (≈ 5.83 µM) | MIC80 ([Candida] auris [2]): 1 µg/mL (≈ 2.91 µM) | MIC80 (Cryptococcus neoformans [3]): 0.5 µg/mL (≈ 1.46 µM)

Cc1ccnc(-n2c(=O)n(-c3ccccn3)c3ccccc32)c1
MIC80 ([Candida] auris [1]): > 64 µg/mL | MIC80 ([Candida] auris [2]): > 64 µg/mL | MIC80 (Cryptococcus neoformans [3]): 64 µg/mL (≈ 212 µM)

Fc1ccc(N/N=C(/c2ccccc2)c2ccccn2)cc1
MIC80 ([Candida] auris [1]): 64 µg/mL (≈ 220 µM) | MIC80 ([Candida] auris [2]): 32 µg/mL (≈ 110 µM) | MIC80 (Cryptococcus neoformans [3]): 32 µg/mL (≈ 110 µM)

COc1ccc(N/N=C(\c2ccccc2)c2ccccn2)nc1
MIC80 ([Candida] auris [1]): 2 µg/mL (≈ 6.57 µM) | MIC80 ([Candida] auris [2]): 0.125 µg/mL (≈ 0.411 µM) | MIC80 (Cryptococcus neoformans [3]): 0.5 µg/mL (≈ 1.64 µM)

S=c1n(-c2ccccn2)c2ccccc2n1-c1ccc(Cl)cn1
MIC80 ([Candida] auris [1]): > 64 µg/mL | MIC80 ([Candida] auris [2]): > 64 µg/mL | MIC80 (Cryptococcus neoformans [3]): 64 µg/mL (≈ 189 µM)

COc1ccc(NN=C(c2ccccn2)c2ccccn2)nc1
Activity ([Candida] auris [4]): Active | MIC (Cryptococcus neoformans [5]): 16 µg/mL | MFC ([Candida] auris [6]): 64 µg/mL (≈ 210 µM) | IC50 [7]: 246 nM | hemolysis at 100 µM [8]: < 3% | Activity (Cryptococcus neoformans [9]): 41.52% | Activity ([Candida] auris [10]): 56.93% | IC50 [11]: 12 nM | IC50 [12]: 134 nM | Activity ([Candida] auris [13]): 43.07% | Activity (Cryptococcus neoformans [14]): Active | inhibition at 16 µg/mL ([Candida] auris [15]): 100% | Activity (Candida albicans): inactive | Activity ([Candida] auris [16]): Active | solubility [17]: 79.2 µg/mL (≈ 259 µM) | MIC (Cryptococcus neoformans [18]): 2 µg/mL | CLint scaled [19]: 108 mL/min/kg | Activity (Cryptococcus neoformans [20]): Active | MIC (Cryptococcus neoformans [21]): 16 µg/mL | Activity (Cryptococcus neoformans [22]): 43.82% | half-life [23]: 50.6 min | MIC (Cryptococcus neoformans [24]): 8 µg/mL | MIC80 ([Candida] auris [1]): 2 µg/mL (≈ 6.55 µM) | MIC (Cryptococcus neoformans [25]): 4 µg/mL | MIC80 ([Candida] auris [2]): 0.125 µg/mL (≈ 0.409 µM) | Activity ([Candida] auris [26]): Active | MIC (Cryptococcus neoformans [27]): 32 µg/mL | Activity ([Candida] auris [28]): Active | Activity (Cryptococcus neoformans [29]): Active | Activity ([Candida] auris [30]): inactive | Activity (Cryptococcus neoformans [31]): Active | Activity (Cryptococcus neoformans [32]): Active | Activity (Cryptococcus neoformans [33]): Active | Activity (Cryptococcus neoformans [34]): Active | Activity (Cryptococcus neoformans [35]): Active | MFC (Cryptococcus neoformans [36]): 8 µg/mL (≈ 26.2 µM) | Activity ([Candida] auris [37]): Active | Activity ([Candida] auris [38]): Active | MIC80 (Cryptococcus neoformans [3]): 0.5 µg/mL (≈ 1.64 µM) | Activity (Cryptococcus neoformans [39]): Active

Cc1ccc(NC(=O)C(c2ccccc2)c2ccccn2)nc1 (configuration not stated)
MIC80 ([Candida] auris [1]): > 64 µg/mL | MIC80 ([Candida] auris [2]): 64 µg/mL (≈ 211 µM) | MIC80 (Cryptococcus neoformans [3]): 32 µg/mL (≈ 105 µM)

O=c1c2ccccc2c(-c2ccccn2)nn1-c1ccc(Cl)cn1
MIC80 ([Candida] auris [1]): > 64 µg/mL | MIC80 ([Candida] auris [2]): > 64 µg/mL | MIC80 (Cryptococcus neoformans [3]): 64 µg/mL (≈ 191 µM)

Clc1ccc(N/N=C(/c2ccc(Cl)cc2)c2ccccn2)cc1
MIC80 ([Candida] auris [1]): 64 µg/mL (≈ 187 µM) | MIC80 ([Candida] auris [2]): 64 µg/mL (≈ 187 µM) | MIC80 (Cryptococcus neoformans [3]): 32 µg/mL (≈ 93.5 µM)
